Data from publication PMC8745332, “Synthesis, Molecular Docking and Biological Characterization of Pyrazine Linked 2-Aminobenzamides as New Class I Selective Histone Deacetylase (HDAC) Inhibitors with Anti-Leukemic Activity” (International Journal of Molecular Sciences, 2021).
Where two headings read alike, the source gives them in different places.

What was measured:
human HDAC2 = target: T1, human HDAC2 (Homo sapiens, UniProt Q92769); test: In vitro HDAC2 inhibition assay, fluorogenic p53 peptide Ac-RHKK(Acetyl)-AMC; type: biochemical; details: 3 nM HDAC2, 20 µM substrate, 30 min, 37 °C
T1 construct: purchased ENZO Life Sciences AG (Lausen, CH)
T1 sequence (Q92769 whole entry): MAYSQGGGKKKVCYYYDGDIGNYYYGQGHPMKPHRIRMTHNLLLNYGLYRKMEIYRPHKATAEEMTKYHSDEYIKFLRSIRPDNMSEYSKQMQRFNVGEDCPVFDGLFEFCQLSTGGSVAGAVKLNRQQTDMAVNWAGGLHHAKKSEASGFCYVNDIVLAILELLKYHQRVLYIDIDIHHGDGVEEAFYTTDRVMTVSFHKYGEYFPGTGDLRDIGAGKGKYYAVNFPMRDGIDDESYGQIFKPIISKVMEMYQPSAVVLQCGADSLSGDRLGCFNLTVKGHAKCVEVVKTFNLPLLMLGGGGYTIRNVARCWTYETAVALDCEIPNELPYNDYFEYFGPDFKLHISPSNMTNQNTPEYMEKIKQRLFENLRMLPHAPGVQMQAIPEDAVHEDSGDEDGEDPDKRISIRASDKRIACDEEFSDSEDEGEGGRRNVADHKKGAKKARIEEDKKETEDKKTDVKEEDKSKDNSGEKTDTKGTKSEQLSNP
Procedure: (§1) Recombinant human HDAC1, HDAC2, and HDAC3/NCOR1 were purchased from ENZO Life Sciences AG (Lausen, CH). Recombinant human HDAC 4, HDAC5, HDAC7, HDAC9 and HDAC11 were produced by Barinka lab in Prague, as described before. Recombinant human HDAC8 was produced by Romier et al. (IGBMC, Univ. Strasbourg), as described in [55].
(§2) The in vitro testing on recombinant HDACs 1-3 were performed with a fluorogenic peptide derived from p53 (Ac-RHKK(Acetyl)-AMC). The measurements were performed in an assay buffer (50 mM Hepes, 150 mM NaCl, 5 mM MgCl2, 1 mM TCEP and 0.2 mg/mL BSA, pH 7.4 adjusted with NaOH) at 37 °C. Inhibitors at different concentrations were incubated with 10 nM HDAC1, 3 nM HDAC2 or 3 nM HDAC3 (final concentration) for at least 5 min. The reaction was started with the addition of the fluorogenic substrate (20 µM final concentration) and incubated for 30 min for HDAC2 and HDAC3 and 90 min for HDAC1. The reaction was stopped with a solution of 1 mg/mL trypsin and 20 µM SAHA in 1 mM HCl and incubated for 1 h at 37 °C. […] The received fluorescence intensities were normalized with uninhibited reaction as 100% and the reaction without enzyme as 0%. A nonlinear regression analysis was done to determine the IC50 value.

human HDAC3/NCOR1 = target: T2, human HDAC3/NCOR1 (Homo sapiens, UniProt O15379); test: In vitro HDAC3 inhibition assay, fluorogenic p53 peptide Ac-RHKK(Acetyl)-AMC; type: biochemical
T2 construct: purchased ENZO Life Sciences AG (Lausen, CH)
T2 sequence (O15379 whole entry): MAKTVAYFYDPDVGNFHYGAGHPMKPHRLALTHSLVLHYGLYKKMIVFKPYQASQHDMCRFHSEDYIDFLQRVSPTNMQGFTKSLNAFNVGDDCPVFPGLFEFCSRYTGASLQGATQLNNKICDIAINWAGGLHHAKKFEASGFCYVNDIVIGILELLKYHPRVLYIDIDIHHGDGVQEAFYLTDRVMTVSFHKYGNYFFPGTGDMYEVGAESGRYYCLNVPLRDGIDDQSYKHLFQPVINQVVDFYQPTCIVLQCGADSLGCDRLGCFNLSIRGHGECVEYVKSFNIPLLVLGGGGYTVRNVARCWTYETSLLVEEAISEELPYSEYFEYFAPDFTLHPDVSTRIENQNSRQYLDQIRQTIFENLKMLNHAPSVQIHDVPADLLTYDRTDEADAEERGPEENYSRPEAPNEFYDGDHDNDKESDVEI
T2 sequence (O75376 395-489 partner limits assumed): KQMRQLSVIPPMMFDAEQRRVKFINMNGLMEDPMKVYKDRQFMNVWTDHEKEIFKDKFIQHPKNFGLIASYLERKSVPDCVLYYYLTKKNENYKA
Procedure: as §1, §2

human HDAC8 = target: T3, human HDAC8 (Homo sapiens, UniProt Q9BY41); test: HDAC8 homogenous fluorescence assay with ZMAL substrate; type: biochemical; details: read-out: HDAC8 (% Inhib.)
T3 construct: made in house
T3 sequence (Q9BY41 1-377): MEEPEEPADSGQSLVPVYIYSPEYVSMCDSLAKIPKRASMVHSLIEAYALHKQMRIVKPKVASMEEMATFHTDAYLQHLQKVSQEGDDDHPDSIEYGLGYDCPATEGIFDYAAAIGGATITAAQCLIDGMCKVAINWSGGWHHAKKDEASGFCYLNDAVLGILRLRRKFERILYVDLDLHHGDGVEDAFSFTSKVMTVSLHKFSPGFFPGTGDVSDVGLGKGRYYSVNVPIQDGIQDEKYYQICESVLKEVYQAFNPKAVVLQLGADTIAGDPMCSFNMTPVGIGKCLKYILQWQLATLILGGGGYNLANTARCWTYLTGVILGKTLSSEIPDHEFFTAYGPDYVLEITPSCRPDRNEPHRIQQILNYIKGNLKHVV
Procedure: as §1
Fluorescence intensity was measured at an excitation wavelength of 390 nm and an emission wavelength of 460 nm in a microtiter plate reader (BMG Polarstar).

human HDAC4 = target: T4, human HDAC4 (Homo sapiens, UniProt P56524); test: HDAC4 dose response, substrate Abz-SRGGK(thio-TFA)FFRR-NH2; type: biochemical
T4 construct: made in house
T4 sequence (P56524 whole entry): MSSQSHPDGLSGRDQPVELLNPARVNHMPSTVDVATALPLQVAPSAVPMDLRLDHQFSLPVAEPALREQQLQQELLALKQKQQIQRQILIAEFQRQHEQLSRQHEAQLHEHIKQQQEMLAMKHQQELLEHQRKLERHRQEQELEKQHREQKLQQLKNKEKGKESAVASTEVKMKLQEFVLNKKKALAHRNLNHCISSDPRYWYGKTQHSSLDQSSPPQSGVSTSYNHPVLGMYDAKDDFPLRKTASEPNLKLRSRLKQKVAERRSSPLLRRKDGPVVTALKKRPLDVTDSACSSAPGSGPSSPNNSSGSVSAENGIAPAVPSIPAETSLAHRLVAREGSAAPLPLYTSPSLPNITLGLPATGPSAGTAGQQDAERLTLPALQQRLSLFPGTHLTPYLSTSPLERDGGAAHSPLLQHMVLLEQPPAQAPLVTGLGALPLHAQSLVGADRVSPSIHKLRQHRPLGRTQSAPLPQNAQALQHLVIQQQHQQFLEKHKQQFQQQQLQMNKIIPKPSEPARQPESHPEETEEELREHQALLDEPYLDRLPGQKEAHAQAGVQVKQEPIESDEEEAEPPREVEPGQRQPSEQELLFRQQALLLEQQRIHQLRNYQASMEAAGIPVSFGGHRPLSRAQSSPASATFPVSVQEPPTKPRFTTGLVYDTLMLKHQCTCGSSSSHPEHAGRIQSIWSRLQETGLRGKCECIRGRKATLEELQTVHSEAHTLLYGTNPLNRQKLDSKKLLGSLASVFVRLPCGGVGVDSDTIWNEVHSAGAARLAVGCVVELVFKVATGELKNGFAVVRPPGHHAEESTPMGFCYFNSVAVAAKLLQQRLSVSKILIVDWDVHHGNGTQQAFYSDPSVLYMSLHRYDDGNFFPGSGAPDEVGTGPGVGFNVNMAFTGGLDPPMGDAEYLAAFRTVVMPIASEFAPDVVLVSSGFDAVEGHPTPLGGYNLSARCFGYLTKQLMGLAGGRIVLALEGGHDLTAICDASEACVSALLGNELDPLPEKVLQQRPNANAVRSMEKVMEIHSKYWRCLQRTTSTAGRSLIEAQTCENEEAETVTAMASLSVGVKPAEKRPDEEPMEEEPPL
Procedure: as §1
(§3) The determination of dose response curves for HDAC4, 5, 7 and 9 was performed as previously described with compound 4 as substrate (Abz-SRGGK(thio-TFA)FFRR-NH2). The substrate concentration was 50 µM and the enzyme concentration was 10 nM for HDAC4 and HDAC5, 5 nM for HDAC7 and 20 nM for HDAC9. HDAC11 inhibition assay was performed as described before. The fluorescence intensity was recorded with an Envision 2104 Multilabel Plate Reader (PerkinElmer, Waltham, MA) with an excitation wavelength of 330 ± 75 nm and an emission wavelength of 430 ± 8 nm.

human HDAC5 = target: T5, human HDAC5 (Homo sapiens, UniProt Q9UQL6); test: HDAC5 dose response, substrate Abz-SRGGK(thio-TFA)FFRR-NH2; type: biochemical
T5 construct: made in house
T5 sequence (Q9UQL6 whole entry): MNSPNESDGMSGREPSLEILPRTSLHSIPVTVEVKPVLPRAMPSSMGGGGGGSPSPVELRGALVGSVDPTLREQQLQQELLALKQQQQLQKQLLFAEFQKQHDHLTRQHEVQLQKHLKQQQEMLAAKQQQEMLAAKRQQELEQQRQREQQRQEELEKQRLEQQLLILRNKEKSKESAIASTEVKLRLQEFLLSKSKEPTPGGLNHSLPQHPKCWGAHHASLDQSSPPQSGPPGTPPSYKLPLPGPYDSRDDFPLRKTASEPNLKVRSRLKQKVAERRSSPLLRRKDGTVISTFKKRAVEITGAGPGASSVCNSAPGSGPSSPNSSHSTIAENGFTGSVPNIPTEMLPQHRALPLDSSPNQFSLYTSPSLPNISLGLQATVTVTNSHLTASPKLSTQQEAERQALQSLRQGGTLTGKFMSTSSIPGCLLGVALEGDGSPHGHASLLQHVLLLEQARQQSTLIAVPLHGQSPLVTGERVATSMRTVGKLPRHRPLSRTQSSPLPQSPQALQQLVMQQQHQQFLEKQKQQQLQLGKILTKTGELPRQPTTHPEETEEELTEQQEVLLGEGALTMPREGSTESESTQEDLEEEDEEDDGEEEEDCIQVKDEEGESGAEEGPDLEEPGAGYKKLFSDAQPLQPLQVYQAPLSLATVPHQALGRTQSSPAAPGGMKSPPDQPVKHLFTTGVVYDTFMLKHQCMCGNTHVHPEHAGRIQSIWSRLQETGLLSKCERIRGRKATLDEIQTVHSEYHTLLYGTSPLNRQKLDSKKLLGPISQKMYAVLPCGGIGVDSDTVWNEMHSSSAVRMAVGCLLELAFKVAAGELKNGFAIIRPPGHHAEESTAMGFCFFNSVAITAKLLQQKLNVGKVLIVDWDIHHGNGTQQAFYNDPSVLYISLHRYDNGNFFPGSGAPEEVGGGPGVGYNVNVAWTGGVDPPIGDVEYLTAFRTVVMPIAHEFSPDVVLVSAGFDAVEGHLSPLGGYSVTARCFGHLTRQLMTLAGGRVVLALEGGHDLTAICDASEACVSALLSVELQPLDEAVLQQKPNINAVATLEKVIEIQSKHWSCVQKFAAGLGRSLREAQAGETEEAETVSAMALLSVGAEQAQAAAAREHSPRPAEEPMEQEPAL
Procedure: as §1, §3

human HDAC7 = target: T6, human HDAC7 (Homo sapiens, UniProt Q8WUI4); test: HDAC7 dose response, substrate Abz-SRGGK(thio-TFA)FFRR-NH2; type: biochemical
T6 construct: made in house
T6 sequence (Q8WUI4 1-952): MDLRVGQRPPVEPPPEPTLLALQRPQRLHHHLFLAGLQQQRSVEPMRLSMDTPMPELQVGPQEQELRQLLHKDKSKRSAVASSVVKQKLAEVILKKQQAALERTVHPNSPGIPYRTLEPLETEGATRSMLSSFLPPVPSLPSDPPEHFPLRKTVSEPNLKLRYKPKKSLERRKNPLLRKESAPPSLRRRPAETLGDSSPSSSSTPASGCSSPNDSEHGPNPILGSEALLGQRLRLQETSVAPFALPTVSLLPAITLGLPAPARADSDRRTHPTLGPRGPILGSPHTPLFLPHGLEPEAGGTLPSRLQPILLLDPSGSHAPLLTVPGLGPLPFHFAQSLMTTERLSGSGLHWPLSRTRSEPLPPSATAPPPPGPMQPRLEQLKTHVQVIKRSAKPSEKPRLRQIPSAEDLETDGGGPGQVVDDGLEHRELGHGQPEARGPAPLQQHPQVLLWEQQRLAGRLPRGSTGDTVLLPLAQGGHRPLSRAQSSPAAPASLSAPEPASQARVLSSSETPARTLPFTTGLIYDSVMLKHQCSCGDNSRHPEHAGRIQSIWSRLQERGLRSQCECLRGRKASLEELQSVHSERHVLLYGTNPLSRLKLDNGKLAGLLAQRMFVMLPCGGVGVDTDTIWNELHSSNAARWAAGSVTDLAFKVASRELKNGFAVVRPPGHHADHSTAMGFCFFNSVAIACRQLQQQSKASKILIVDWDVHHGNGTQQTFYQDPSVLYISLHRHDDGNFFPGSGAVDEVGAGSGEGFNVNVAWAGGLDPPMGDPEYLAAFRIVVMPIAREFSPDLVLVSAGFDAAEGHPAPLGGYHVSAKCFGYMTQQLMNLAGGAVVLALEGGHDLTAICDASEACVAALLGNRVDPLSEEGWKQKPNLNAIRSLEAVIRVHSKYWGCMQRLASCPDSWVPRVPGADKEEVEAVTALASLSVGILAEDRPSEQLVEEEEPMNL
Procedure: as §1, §3

human HDAC9 = target: T7, human HDAC9 (Homo sapiens, UniProt Q9UKV0); test: HDAC9 dose response, substrate Abz-SRGGK(thio-TFA)FFRR-NH2; type: biochemical
T7 construct: made in house
T7 sequence (Q9UKV0 whole entry): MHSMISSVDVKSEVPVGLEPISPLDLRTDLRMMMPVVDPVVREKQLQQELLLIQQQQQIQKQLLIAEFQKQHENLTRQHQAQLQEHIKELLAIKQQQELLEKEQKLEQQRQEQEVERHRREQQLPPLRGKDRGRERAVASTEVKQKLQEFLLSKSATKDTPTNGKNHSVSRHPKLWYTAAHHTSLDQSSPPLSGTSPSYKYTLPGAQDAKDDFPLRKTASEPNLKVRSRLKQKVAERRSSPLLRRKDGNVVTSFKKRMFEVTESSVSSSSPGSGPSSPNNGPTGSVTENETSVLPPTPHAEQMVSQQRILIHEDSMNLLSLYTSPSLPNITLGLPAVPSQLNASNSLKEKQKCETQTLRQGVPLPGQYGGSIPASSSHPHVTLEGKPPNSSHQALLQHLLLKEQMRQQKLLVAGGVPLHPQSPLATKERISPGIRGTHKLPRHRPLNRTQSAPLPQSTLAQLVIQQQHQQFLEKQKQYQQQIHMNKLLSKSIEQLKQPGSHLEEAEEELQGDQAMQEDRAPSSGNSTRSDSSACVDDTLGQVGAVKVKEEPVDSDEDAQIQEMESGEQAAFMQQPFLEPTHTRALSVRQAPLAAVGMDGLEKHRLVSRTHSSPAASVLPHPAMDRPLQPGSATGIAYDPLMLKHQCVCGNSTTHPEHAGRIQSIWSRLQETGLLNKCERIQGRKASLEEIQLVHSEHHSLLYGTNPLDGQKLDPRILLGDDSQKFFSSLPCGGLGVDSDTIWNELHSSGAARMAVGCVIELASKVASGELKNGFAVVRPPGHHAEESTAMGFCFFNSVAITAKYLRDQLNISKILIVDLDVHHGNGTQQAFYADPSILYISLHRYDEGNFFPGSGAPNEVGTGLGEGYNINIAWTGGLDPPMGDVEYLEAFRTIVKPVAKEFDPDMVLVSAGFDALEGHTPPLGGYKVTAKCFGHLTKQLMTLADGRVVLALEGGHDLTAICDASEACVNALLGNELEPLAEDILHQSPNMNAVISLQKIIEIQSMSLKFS
Procedure: as §1, §3

MV4-11 cells = test: Apoptosis in MV4-11 cells, annexin-V-FITC/PI flow cytometry; type: cell-based, human; details: for IC50: Homo sapiens; for induction of early and late apoptosis: 0.5 µM, 48 h
Procedure: We measured the induction of early (increased exposure of phosphatidylserine on the cell surface and therefore positive staining for annexin-V-FITC) and late apoptosis (positivity for annexin-V and accumulation of propidium iodide, PI) by flow cytometry.
All leukemic cells were kept in RPMI-1640 medium supplemented with 10% FBS and 1%penicillin/streptomycin (Sigma-Aldrich, Taufkirchen, Germany) under standard culture conditions at 37 °C and a 5% CO2 humidified atmosphere. Cells were authenticated as mentioned by us.

in vitro = details: human, HEK293 cells
Procedure: The cells were incubated for 48 h with the HDACi at a concentration of 50 µM, and cell viability was determined by the Alamar Blue assay.
To determine the cytotoxicity of the developed compounds on the human epithelial kidney, cell line HEK293 was used. HEK293 cells (DSMZ Braunschweig, ACC305) were incubated at 37 °C in a humidified incubator with 5% CO2 in Dulbecco’s Modified Eagle Medium (DMEM) supplemented with 10% FCS and 5 mM glutamine. Cells were seeded out at 1.5 x 10^3 cells per well in a 96-well cell culture plate (TPP, Switzerland). The compounds to be tested were added immediately to the medium at 50 µM. After 24 h, Alamar Blue reagent (Invitrogen, CA) was added according to the manufacturer’s instructions and incubated again for 21 h before samples were analyzed. Detection of viable cells which convert the resazurine reagent into the highly fluorescent resorufin was performed by using a FLUOstarOPTIMA microplate reader (BMG Labtec) with the following filter set: Ex 530 nm/Em 590 nm. Measurements were performed in triplicate and data are means with standard deviation <12%.

inhibition at 1 µM (human HDAC3/NCOR1; read-out: HDAC3 % inhibition @ 1 µM)	Compound	IC50 (human HDAC2)	IC50 (human HDAC3/NCOR1; 3 nM HDAC3, 20 µM substrate, 30 min, 37 °C)	inhibition at 1 µM (human HDAC8)	IC50 (human HDAC4)	IC50 (human HDAC5)	IC50 (human HDAC7)	IC50 (human HDAC9)	IC50 (MV4-11 cells; MV4-11, 48 h, read-out: IC50 (apoptosis, annexin-V/PI))	IC50 (MV4-11 cells; MV4-11 cells, 24 h, annexin-V/PI, read-out: IC50 for apoptosis induction)	IC50 (MV4-11 cells; MV4-11 cells, after 48 h, read-out: IC50 values for growth inhibition)	induction of early and late apoptosis (MV4-11 cells; MV4-11 cells)	fold more effective than MS-275 (apoptosis induction) (MV4-11 cells; MV4-11 cells, versus MS-275)	viability at 48 h, 50 µM (in vitro)
–	Nc1ccccc1NC(=O)c1cnc(N2CCN(Cc3c[nH]c4ccccc34)CC2)cn1 [19f, 5-(4-((1H-indol-3-yl)methyl)piperazin-1-yl)-N-(2-aminophenyl)pyrazine-2-carboxamide]	0.28 ± 0.01 µM	0.31 ± 0.01 µM	0%	> 20 µM	> 20 µM	> 20 µM	> 20 µM	0.194 µM	0.255 µM	~0.3 µM	early and late apoptosis in nearly the whole MV4-11 cell population	at least 4 fold	76.1%
0%	Cn1cc(CCN2CCN(c3cnc(C(=O)Nc4cc(-c5cccs5)ccc4N)cn3)CC2)c2ccccc21 [21a, N-(2-Amino-5-(thiophen-2-yl)phenyl)-5-(4-(2-(1-methyl-1H-indol-3-yl)ethyl)piperazin-1-yl)pyrazine-2-carboxamide]	2.47 ± 0.22 µM	–	–	> 20 µM	> 20 µM	> 20 µM	> 20 µM	–	–	–	slightly increased the number of MV4-11 cells in late apoptosis	–	94.4%
